Data reported in patent US20230399312A1, “SUBSTITUTED PYRIMIDINES AND METHODS OF USE” (THERAVANCE BIOPHARMA R&D IP, LLC, priority 2020, published 2023).

Assays:
[1] = biological target: T1, recombinant human ALK5 (TGF-βR1) protein (Homo sapiens, UniProt P36897); assay: Biochemical ALK5 (TGF-βR1) assay to measure pKi (LANCE Ultra ULight kinase assay); details: apparent pKi, converted from pIC50 by Cheng-Prusoff
T1 construct: purchased Life Technologies PR9075A
T1 sequence (P36897 34-503): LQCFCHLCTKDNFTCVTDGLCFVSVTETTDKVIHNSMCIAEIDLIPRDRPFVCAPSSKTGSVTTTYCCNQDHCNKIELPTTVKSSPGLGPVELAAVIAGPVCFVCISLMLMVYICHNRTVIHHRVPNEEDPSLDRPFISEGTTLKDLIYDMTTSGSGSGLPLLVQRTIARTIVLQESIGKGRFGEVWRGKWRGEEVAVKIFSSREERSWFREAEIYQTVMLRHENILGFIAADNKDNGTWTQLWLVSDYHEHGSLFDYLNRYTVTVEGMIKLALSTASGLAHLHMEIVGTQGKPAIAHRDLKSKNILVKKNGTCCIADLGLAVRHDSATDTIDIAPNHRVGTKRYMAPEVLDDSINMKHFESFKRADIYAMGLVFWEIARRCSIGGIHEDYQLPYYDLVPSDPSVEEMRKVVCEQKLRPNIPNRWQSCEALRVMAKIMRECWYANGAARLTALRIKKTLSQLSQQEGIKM
Procedure, shortened: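 Read-out was LANCE Ultra TR-FRET with a europium anti-phospho-Topo IIα Thr1342 antibody after EDTA quench. Kinase reaction ran 60 min at 37 °C with ATP added from a 125 μM 5× stock, after 60 min compound–enzyme equilibration at room temperature. Values are pKi from Cheng-Prusoff conversion of fitted pIC50.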

[2] = system: TGF-β-stimulated SMAD3 phosphorylation in BEAS-2B cells; assay: Cellular ALK5 potency assay, inhibition of TGF-β stimulated pSMAD3 formation in BEAS-2B cells; type: cell-based; details: Homo sapiens, pSMAD3, TGF-β 10 ng/mL, read-out: BEAS2B pIC50 (converted)
Procedure, shortened: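 Human lung epithelial BEAS-2B cells were pre-treated with compound for 1 h at 37 °C, then stimulated with TGF-β (final 10 ng/mL) for 30 min before lysis. pSMAD3 was quantified by AlphaLISA and pIC50 derived from dose-dependent signal change versus TGF-β-stimulated untreated cells.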

| SMILES | Ki [1] [nM] | IC50 [2] [nM] |
| --- | --- | --- |
| Cc1cccc(-c2nccc(Nc3ccnc(Nc4ccc(C)c(CN5CCSCC5)c4)n3)n2)n1 [Compound 361, N4-[2-(6-methyl-2-pyridyl)pyrimidin-4-yl]-N2-[4-methyl-3-(thiomorpholinomethyl)phenyl] pyrimidine-2,4-diamine] | 0.0398 to 0.316 | 25.1 to 158 |
| Cc1cccc(-c2nccc(Nc3ccnc(Nc4cccc(CN5CCNCC5)c4)n3)n2)n1 [Compound 362, N4-[2-(6-methyl-2-pyridyl)pyrimidin-4-yl]-N2-[3-(piperazin-1-ylmethyl)phenyl]pyrimidine-2,4-diamine] | 0.0398 to 0.316 | 25.1 to 158 |
| Cc1cccc(-c2nccc(Nc3ccnc(Nc4ccc(NS(=O)(=O)CCN)cc4)n3)n2)n1 [Compound 363, 2-amino-N-[4-[[4-[[2-(6-methyl-2-pyridyl)pyrimidin-4-yl]amino]pyrimidin-2-yl]amino]phenyl] ethanesulfonamide] | 0.398 to 3.16 | 200 to 1260 |
| Cc1cccc(-c2nccc(Nc3ccnc(Nc4csc(NC(=O)C5CCNC5)c4)n3)n2)n1 (stereo not shown) [Compound 364, N-[4-[[4-[[2-(6-methyl-2-pyridyl)pyrimidin-4-yl]amino]pyrimidin-2-yl]amino]-2-thienyl]pyrrolidine-3-carboxamide] | ≤ 0.0316 | ≤ 20 |
| Cc1cccc(-c2nccc(Nc3ccnc(Nc4ccc(N5CCN(C6CCOC6=O)CC5)cc4)n3)n2)n1 (stereo not shown) [Compound 365, 3-[4-[4-[[4-[[2-(6-methyl-2-pyridyl)pyrimidin-4-yl]amino]pyrimidin-2-yl]amino]phenyl]piperazin-1-yl]tetrahydrofuran-2-one] | 0.0398 to 0.316 | ≤ 20 |
| Cc1cccc(-c2nccc(Nc3ccnc(Nc4ccc(CN5CCOCC5)cc4)n3)n2)n1 [Compound 366, N4-[2-(6-methyl-2-pyridyl)pyrimidin-4-yl]-N2-[4-(morpholinomethyl)phenyl] pyrimidine-2,4-diamine] | 0.0398 to 0.316 | 25.1 to 158 |
| CNC(=O)[C@@H]1CN(c2ccc(Nc3nccc(Nc4ccnc(-c5cccc(C)n5)n4)n3)cc2)CCN1 [Compound 367, (2S)-N-methyl-4-[4-[[4-[[2-(6-methyl-2-pyridyl)pyrimidin-4-yl]amino]pyrimidin-2-yl]amino]phenyl]piperazine-2-carboxamide] | 0.0398 to 0.316 | 25.1 to 158 |
| Cc1cccc(-c2nccc(Nc3ccnc(Nc4ccc(N5CCC(C(=O)OCC6CNC6)CC5)cc4)n3)n2)n1 [Compound 368, azetidin-3-ylmethyl 1-[4-[[4-[[2-(6-methyl-2-pyridyl)pyrimidin-4-yl]amino]pyrimidin-2-yl]amino]phenyl]piperidine-4-carboxylate] | 0.0398 to 0.316 | 25.1 to 158 |
| COC(=O)C1CN(CCNc2ccc(Nc3nccc(Nc4ccnc(-c5cccc(C)n5)n4)n3)cc2)CCN1 (stereo not shown) [Compound 369, methyl 4-[2-[4-[[4-[[2-(6-methyl-2-pyridyl)pyrimidin-4-yl]amino]pyrimidin-2-yl]amino]anilino]ethyl] piperazine-2-carboxylate] | 0.398 to 3.16 | 25.1 to 158 |
| Cc1cccc(-c2nccc(Nc3ccnc(Nc4ccc(CN5CCN(C(C)C)CC5)cc4)n3)n2)n1 [Compound 370, N2-[4-[(4-isopropylpiperazin-1-yl)methyl]phenyl]-N4-[2-(6-methyl-2-pyridyl)pyrimidin-4-yl]pyrimidine-2,4-diamine] | 0.0398 to 0.316 | 25.1 to 158 |
| Cc1cccc(-c2nccc(Nc3ccnc(Nc4ccc(NS(=O)(=O)N(C)C)cc4)n3)n2)n1 [Compound 371, 4-[[2-[4-(dimethylsulfamoylamino)anilino]pyrimidin-4-yl]amino]-2-(6-methyl-2-pyridyl)pyrimidine] | 0.398 to 3.16 | 25.1 to 158 |
| Cc1cccc(-c2nccc(Nc3ccnc(Nc4ccc(CN5CC6(CCOC6)C5)cc4)n3)n2)n1 [Compound 372, N4-[2-(6-methyl-2-pyridyl)pyrimidin-4-yl]-N2-[4-(6-oxa-2-azaspiro[3.4]octan-2-ylmethyl)phenyl]pyrimidine-2,4-diamine] | 0.0398 to 0.316 | 25.1 to 158 |
| Cc1cccc(-c2nccc(Nc3ccnc(Nc4cnn(C5CCCNC5)c4)n3)n2)n1 (stereo not shown) [Compound 373, N4-[2-(6-methyl-2-pyridyl)pyrimidin-4-yl]-N2-[1-(3-piperidyl)pyrazol-4-yl]pyrimidine-2,4-diamine] | ≤ 0.0316 | 200 to 1260 |
| Cc1cccc(-c2nccc(Nc3ccnc(Nc4ccc(C5CCCNC5)cc4)n3)n2)n1 (stereo not shown) [Compound 374, N4-[2-(6-methyl-2-pyridyl)pyrimidin-4-yl]-N2-[4-(3-piperidyl)phenyl]pyrimidine-2,4-diamine] | 0.0398 to 0.316 | 25.1 to 158 |
| Cc1cccc(-c2nccc(Nc3ccnc(Nc4ccc(CN5C[C@@H]6C[C@H]5CN6)cc4)n3)n2)n1 [Compound 375, N2-[4-[[(1S,4S)-2,5-diazabicyclo[2.2.1]heptan-2-yl]methyl]phenyl]-N4-[2-(6-methyl-2-pyridyl)pyrimidin-4-yl]pyrimidine-2,4-diamine] | 0.0398 to 0.316 | 25.1 to 158 |
| Cc1cccc(-c2nccc(Nc3ccnc(Nc4ccc(F)c(CN5C6CCC5CNC6)c4)n3)n2)n1 [Compound 384, N2-[3-(3,8-diazabicyclo[3.2.1]octan-8-ylmethyl)-4-fluoro-phenyl]-N4-[2-(6-methyl-2-pyridyl)pyrimidin-4-yl]pyrimidine-2,4-diamine] | 0.0398 to 0.316 | 25.1 to 158 |

Further lines, with some results ahead:

| Ki [1] [nM] | SMILES | IC50 [2] [nM] |
| --- | --- | --- |
| 0.0398 to 0.316 | Cc1cccc(-c2nccc(Nc3ccnc(Nc4ccc(CN5C[C@H](C)NC[C@H]5C)cc4)n3)n2)n1 [Compound 376, N2-[4-[[(2R,5S)-2,5-dimethylpiperazin-1-yl]methyl]phenyl]-N4-[2-(6-methyl-2-pyridyl)pyrimidin-4-yl]pyrimidine-2,4-diamine] | 25.1 to 158 |
| 0.0398 to 0.316 | Cc1cccc(-c2nccc(Nc3ccnc(Nc4ccc(CN5CCCNCC5)cc4)n3)n2)n1 [Compound 377, N2-[4-(1,4-diazepan-1-ylmethyl)phenyl]-N4-[2-(6-methyl-2-pyridyl)pyrimidin-4-yl]pyrimidine-2,4-diamine] | 25.1 to 158 |
| ≤ 0.0316 | Cc1cccc(-c2nccc(Nc3ccnc(Nc4csc(C(=O)NCC5(CO)CNC5)c4)n3)n2)n1 [Compound 378, N-[[3-(hydroxymethyl)azetidin-3-yl]methyl]-4-[[4-[[2-(6-methyl-2-pyridyl)pyrimidin-4-yl]amino]pyrimidin-2-yl]amino]thiophene-2-carboxamide] | 25.1 to 158 |
| 0.398 to 3.16 | CNC1CCN(c2ccc(Nc3nccc(Nc4ccnc(-c5cc(O)ccc5C)n4)n3)cc2)CC1 [Compound 379, 4-methyl-3-[4-[[2-[4-[4-(methylamino)-1-piperidyl]anilino]pyrimidin-4-yl]amino]pyrimidin-2-yl]phenol] | 200 to 1260 |
| 0.0398 to 0.316 | Cc1cccc(-c2nccc(Nc3ccnc(Nc4ccc(N5CCN(CC6CNC6)CC5)cc4)n3)n2)n1 [Compound 380, N2-[4-[4-(azetidin-3-ylmethyl)piperazin-1-yl]phenyl]-N4-[2-(6-methyl-2-pyridyl)pyrimidin-4-yl]pyrimidine-2,4-diamine] | 25.1 to 158 |
| 0.0398 to 0.316 | Cc1cccc(-c2nccc(Nc3ccnc(Nc4ccc(Cl)c(CN5C[C@@H](C)N[C@@H](C)C5)c4)n3)n2)n1 [Compound 381, N2-[4-chloro-3-[[rac-(3R,5S)-3,5-dimethylpiperazin-1-yl]methyl]phenyl]-N4-[2-(6-methyl-2-pyridyl)pyrimidin-4-yl]pyrimidine-2,4-diamine] | 25.1 to 158 |
| 0.0398 to 0.316 | Cc1cccc(-c2nccc(Nc3ccnc(Nc4ccc(CN5CCCC(C(=O)OC6CCNCC6)C5)cc4)n3)n2)n1 (stereo not shown) [Compound 383, 4-piperidyl 1-[[4-[[4-[[2-(6-methyl-2-pyridyl)pyrimidin-4-yl]amino]pyrimidin-2-yl]amino]phenyl]methyl] piperidine-3-carboxylate] | 25.1 to 158 |
| ≤ 0.0316 | Cc1cccc(-c2nccc(Nc3ccnc(Nc4cccc(NC(=O)CC5CNC5)c4)n3)n2)n1 [Compound 385, 2-(azetidin-3-yl)-N-[3-[[4-[[2-(6-methyl-2-pyridyl)pyrimidin-4-yl]amino]pyrimidin-2-yl]amino]phenyl]acetamide] | 25.1 to 158 |
| 0.398 to 3.16 | Cc1cccc(-c2nccc(Nc3ccnc(Nc4csc(C(=O)O)c4)n3)n2)n1 [Compound 386, 4-[[4-[[2-(6-methyl-2-pyridyl)pyrimidin-4-yl]amino]pyrimidin-2-yl]amino]thiophene-2-carboxylic acid] | 1580 to 10000 |
| 0.0398 to 0.316 | Cc1cccc(-c2nccc(Nc3ccnc(Nc4ccc(C(=O)NC5CNC5)cc4)n3)n2)n1 [Compound 387, N-(azetidin-3-yl)-4-[[4-[[2-(6-methyl-2-pyridyl)pyrimidin-4-yl]amino]pyrimidin-2-yl]amino]benzamide] | ≤ 20 |
